Measurements reported in patent publication US12454509B2, “Local anesthetics with selective-sensory nerve blockade” (Children's Medical Center Corporation, priority 2019, dated 2025).

What was measured:
hERG = hERG (Homo sapiens, UniProt Q12809); assay: Whole-cell patch clamp, hERG current in stably transfected HEK cells
Method: (§1) These experiments were designed to examine the acute effects of 4Sa (ZYK2312-1), 4Sb (ZYK2312-2), and bupivacaine on hERG and peak Nav1.5 currents recorded from stably transfected HEK cells.
(§2) Experimental Methods: Currents were measured using the whole-cell variant of the patch clamp method. Glass pipettes were pulled from borosilicate glass by a horizontal puller (Sutter Instruments, USA). Pipette tip resistance was approximately 1 to 2 MΩ when filled with internal solutions. Series resistance was compensated electronically by approximately 60-80%. Bath temperature was measured by a thermistor placed near the cell under study. An Axopatch 1-B amplifier (Axon Instruments, Foster City, CA) was used for whole-cell voltage clamping. Creation of voltage clamp pulses and data acquisition was controlled by a computer running pClamp software (ver 9.2 Axon Instruments). After rupture of the cell membrane (entering whole-cell mode), current kinetics and amplitudes were allowed to stabilize as the cell was dialyzed with internal solution and paced every 5 seconds (typically 2 to 3 minutes). Peak INa was elicited using a pulse pattern with fixed amplitudes (conditioning prepulse: −120 mV for 50 ms; depolarizing test step to −30 mV for 20 ms). hERG current was elicited with a 500 ms pulse to +10 mV followed by a 500 ms pulse to −40 mV (holding potential=[…]). Cells were perfused at each testing concentration until a steady-state was reached.
(§3) Raw data and mean±SEM are given. Data are presented as percent reduction of current amplitude. […] Each cell served as its own control. A nonlinear curve-fitting routine was utilized to fit a three-parameter Hill equation to the results using MicroCal Origin, version 6.0 software. The equation is:
(§4) [formula] where Vmax=100 and k and n are unconstrained variables.

PC12 cells = assay: Cytotoxicity in PC12 cells; assay type: cell-based, rat; settings: for cytotoxicity compared with ropivacaine and bupivacaine (in words): FIG. 1 / Table 2; for IC50: Rattus norvegicus, PC-12, cytotoxicity, exposure up to 24 h
Method: (§5) C2C12 Mouse myoblasts [American Type Culture Collection (ATCC) CRL-1772] were cultured to proliferate in DMEM supplemented with 20% FBS and 100 Penicillin Streptomycin. Cell culture supplies were obtained from Invitrogen, unless otherwise noted. Cells were plated at 50,000 cells per mL in DMEM with 2% horse serum and 1% Penn Strep, and left to differentiate into myotubules for 10-14 days. During differentiation, media were exchanged every 2 to 3 days. Cell viability and proliferation were studied after exposures to drugs for up to 24 h. PC12 cells (ATCC, CRL-1721) originating from rat adrenal gland pheochromocytoma were grown in 24-well tissue culture dishes (CellBind; Corning) with F-12K (ATCC) supplemented with 12.5% horse serum (Gibco), 2.5% FBS (Gibco), and 1% Penn Strep (Sigma). For neuronal induction (PC12), cells were seeded at a relative low density of 5×10^4 cells/cm2 and 50 ng/mL NGF was added 24 h after seeding. Cell viability and proliferation were evaluated as for C2C12 cells. Experiments with PC12 cells were conducted for up to 24 hours.

sciatic nerve [1] = assay: Sciatic nerve block in rats: duration of thermal nociceptive (sensory) block, modified hotplate test; assay type: in vivo, rat; settings: for Block Duration (min) Sensory: rat sciatic nerve injection 0.3 mL; for Sensory:Motor Block Ratio: rat sciatic nerve block
Text: (§6) Sciatic Nerve Block and Neurobehavioral Testing. Animals were cared for in compliance with protocols approved by the Children's Hospital Animal Care and Use Committee, and the Massachusetts Institute of Technology Committee on Animal Care, which conformed to guidelines of the International Association for the Study of Pain. Adult male Sprague-Dawley rats (Charles River Laboratories) weighing 320-450 g were housed in groups, in a 6 AM to 6 PM light-dark cycle. Under brief isoflurane-oxygen anesthesia, a 23G needle was introduced postero-medial to the greater trochanter, until bone was contacted, and 0.3 mL of test solution was injected over the sciatic nerve. Thermal nociception was assessed by a modified hotplate test, and motor function via a weight-bearing test. […] Motor strength was assessed with a weight-bearing test. In brief, the animal was held over a digital balance such that it could bear weight with 1 hind paw at a time. The maximum weight that it could bear was recorded. The duration of motor blockade was defined as the time for weight bearing to return halfway to normal from maximal block. The halfway point for each rat was defined as […].

C2C12 Mouse myoblasts = assay: Cytotoxicity in C2C12 myotubules; assay type: cell-based; settings: C2C12 cells; for cytotoxicity compared with ropivacaine and bupivacaine (in words): FIG. 2 / Table 2; for IC50: Mus musculus, cytotoxicity, exposure up to 24 h
Method: as §5

peak Nav1.5 = peak Nav1.5 (Homo sapiens, UniProt Q14524); assay: Whole-cell patch clamp, peak Nav1.5 current in stably transfected HEK cells; settings: for peak Nav1.5 current amplitude, percent reduction: individual cell (raw data)
peak Nav1.5, sequence (Q14524 whole entry): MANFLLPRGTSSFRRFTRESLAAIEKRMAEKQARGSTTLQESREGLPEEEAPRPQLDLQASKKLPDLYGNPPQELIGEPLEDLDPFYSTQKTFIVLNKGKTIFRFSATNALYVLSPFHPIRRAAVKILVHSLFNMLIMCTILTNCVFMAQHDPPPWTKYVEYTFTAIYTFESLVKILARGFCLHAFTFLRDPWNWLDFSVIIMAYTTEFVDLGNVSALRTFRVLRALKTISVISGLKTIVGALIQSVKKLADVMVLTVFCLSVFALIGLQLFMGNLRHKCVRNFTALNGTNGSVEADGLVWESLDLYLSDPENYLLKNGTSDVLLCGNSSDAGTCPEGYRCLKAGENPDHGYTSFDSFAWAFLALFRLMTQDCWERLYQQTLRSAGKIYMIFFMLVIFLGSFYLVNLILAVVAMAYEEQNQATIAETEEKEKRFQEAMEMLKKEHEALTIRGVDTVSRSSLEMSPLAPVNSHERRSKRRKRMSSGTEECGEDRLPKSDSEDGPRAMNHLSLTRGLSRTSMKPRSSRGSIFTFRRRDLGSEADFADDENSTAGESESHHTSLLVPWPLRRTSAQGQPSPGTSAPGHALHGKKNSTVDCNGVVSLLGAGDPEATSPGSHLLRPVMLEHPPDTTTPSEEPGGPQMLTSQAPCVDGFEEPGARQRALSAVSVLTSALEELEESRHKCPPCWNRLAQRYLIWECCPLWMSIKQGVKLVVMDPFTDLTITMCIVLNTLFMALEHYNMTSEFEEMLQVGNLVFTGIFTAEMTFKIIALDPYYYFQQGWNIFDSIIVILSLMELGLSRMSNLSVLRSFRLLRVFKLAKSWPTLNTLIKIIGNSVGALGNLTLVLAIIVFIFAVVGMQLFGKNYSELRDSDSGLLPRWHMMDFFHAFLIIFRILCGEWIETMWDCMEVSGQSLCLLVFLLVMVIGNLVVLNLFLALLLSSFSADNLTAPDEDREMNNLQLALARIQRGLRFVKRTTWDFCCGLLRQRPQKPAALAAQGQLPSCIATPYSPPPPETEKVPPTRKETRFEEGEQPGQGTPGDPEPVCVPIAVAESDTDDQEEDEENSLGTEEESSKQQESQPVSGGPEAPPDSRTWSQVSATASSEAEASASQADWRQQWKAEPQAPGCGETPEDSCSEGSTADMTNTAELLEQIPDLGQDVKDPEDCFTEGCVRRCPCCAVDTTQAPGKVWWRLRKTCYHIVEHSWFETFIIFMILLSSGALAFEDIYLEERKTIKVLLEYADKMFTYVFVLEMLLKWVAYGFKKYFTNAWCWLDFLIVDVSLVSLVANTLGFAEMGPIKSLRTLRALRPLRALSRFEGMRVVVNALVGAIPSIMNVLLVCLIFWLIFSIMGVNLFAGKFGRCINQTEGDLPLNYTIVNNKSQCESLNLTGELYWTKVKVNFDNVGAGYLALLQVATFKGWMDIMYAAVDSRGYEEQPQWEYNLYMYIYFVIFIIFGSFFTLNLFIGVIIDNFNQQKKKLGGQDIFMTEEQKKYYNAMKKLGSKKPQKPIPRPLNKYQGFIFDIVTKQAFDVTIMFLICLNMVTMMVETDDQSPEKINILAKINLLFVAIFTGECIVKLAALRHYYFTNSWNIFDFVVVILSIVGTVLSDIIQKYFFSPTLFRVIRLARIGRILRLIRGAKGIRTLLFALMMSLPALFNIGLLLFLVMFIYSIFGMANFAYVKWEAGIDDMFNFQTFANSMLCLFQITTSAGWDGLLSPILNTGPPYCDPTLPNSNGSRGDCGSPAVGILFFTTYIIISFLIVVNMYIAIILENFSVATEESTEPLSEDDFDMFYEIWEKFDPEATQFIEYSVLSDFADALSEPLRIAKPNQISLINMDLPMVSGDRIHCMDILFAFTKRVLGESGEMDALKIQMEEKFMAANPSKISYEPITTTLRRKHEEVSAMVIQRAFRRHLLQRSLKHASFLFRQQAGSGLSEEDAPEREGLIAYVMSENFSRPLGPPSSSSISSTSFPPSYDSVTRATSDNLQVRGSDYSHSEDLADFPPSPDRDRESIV
Method: as §1, §2, §3, §4

sciatic nerve [2] = assay: Sciatic nerve block in rats: duration of motor block, weight-bearing test; assay type: in vivo; settings: rat sciatic nerve injection 0.3 mL
Text: as §6

hERG, sequence (Q12809 whole entry): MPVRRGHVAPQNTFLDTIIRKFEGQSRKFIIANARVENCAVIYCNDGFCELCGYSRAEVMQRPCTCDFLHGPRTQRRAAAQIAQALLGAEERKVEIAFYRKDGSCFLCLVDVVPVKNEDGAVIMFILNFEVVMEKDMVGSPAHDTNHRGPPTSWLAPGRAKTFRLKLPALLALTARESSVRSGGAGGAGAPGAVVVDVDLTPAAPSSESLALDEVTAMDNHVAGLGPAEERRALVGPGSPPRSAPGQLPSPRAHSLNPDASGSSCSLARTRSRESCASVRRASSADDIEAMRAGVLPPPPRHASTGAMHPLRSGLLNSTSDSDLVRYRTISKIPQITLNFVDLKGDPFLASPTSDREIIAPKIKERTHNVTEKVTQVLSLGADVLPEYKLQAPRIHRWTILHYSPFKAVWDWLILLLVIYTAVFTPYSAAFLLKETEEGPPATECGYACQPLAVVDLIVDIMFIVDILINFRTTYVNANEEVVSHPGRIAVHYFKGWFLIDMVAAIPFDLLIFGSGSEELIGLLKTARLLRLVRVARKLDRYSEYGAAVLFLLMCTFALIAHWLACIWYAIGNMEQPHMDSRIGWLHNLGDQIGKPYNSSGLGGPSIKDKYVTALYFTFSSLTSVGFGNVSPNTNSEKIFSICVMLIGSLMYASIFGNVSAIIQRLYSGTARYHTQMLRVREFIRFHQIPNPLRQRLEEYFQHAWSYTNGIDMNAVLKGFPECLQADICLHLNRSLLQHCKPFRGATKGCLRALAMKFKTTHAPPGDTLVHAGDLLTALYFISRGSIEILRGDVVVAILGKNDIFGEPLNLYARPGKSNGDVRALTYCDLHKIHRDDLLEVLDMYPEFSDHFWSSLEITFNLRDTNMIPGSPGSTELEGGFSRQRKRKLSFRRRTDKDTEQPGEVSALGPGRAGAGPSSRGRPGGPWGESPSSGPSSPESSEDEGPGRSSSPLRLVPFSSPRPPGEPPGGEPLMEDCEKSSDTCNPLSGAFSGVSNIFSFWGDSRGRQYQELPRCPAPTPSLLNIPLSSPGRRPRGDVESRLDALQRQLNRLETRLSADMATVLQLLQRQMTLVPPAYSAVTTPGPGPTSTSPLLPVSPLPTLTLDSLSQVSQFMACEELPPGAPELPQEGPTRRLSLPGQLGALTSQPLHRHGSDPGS

Compound: CCC[N@+]1(CC(=O)OC)CCCC[C@H]1C(=O)Nc1c(C)cccc1C.[Br-] [Compound 4Sa, 2-((2,6-Dimethylphenyl)carbamoyl)-1-(2-methoxy-2-oxoethyl)-1-propylpiperidin-1-ium bromide]
- IC50 (hERG): 814 µM
- hERG current amplitude, percent reduction (hERG; human, 1 μM): 0%
- hERG current amplitude, percent reduction, mean ± SE (hERG; human, 1 μM): 0 ± 0%
- hERG current amplitude, percent reduction, mean ± SE (hERG; human, 10 μM): 3.6 ± 0.5%
- hERG current amplitude, percent reduction, mean ± SE (hERG; human, 100 μM): 16.8 ± 4.0%
- hERG current amplitude, percent reduction, mean ± SE (hERG; human, 300 μM): 31.3 ± 2.0%
- hERG current amplitude, percent reduction, mean ± SE (hERG; human, 1000 μM): 51.6 ± 2.2%
- cytotoxicity compared with ropivacaine and bupivacaine (in words) (PC12 cells): significantly less cytotoxic than ropivacaine and bupivacaine
- IC50 (PC12 cells): 19200 µM
- Block Duration (min) Sensory (sciatic nerve [1]; dose conc 10 mM): 200 ± 60 min
- cytotoxicity compared with ropivacaine and bupivacaine (in words) (C2C12 Mouse myoblasts): significantly less cytotoxic than ropivacaine and bupivacaine
- IC50 (C2C12 Mouse myoblasts): 14600 µM
- peak Nav1.5 current amplitude, percent reduction (peak Nav1.5; 1 μM): 0%
- peak Nav1.5 current amplitude, percent reduction, mean ± SE (peak Nav1.5; 1 μM): 0 ± 0%
- peak Nav1.5 current amplitude, percent reduction (peak Nav1.5; 10 μM): 0%
- peak Nav1.5 current amplitude, percent reduction, mean ± SE (peak Nav1.5; 10 μM): 0 ± 0%
- peak Nav1.5 current amplitude, percent reduction, mean ± SE (peak Nav1.5; 100 μM): 2.3 ± 1.4%
- peak Nav1.5 current amplitude, percent reduction, mean ± SE (peak Nav1.5; 300 μM): 5.6 ± 1.8%
- peak Nav1.5 current amplitude, percent reduction, mean ± SE (peak Nav1.5; 1000 μM): 14.6 ± 3.4%
- inhibition at 1 µM (peak Nav1.5; HEK293, read-out: peak Nav1.5 current amplitude, percent reduction, 1 μM, individual cell (raw data)): 0%
- inhibition at 10 µM (peak Nav1.5; HEK293, read-out: peak Nav1.5 current amplitude, percent reduction, 10 μM, individual cell (raw data)): 0%
- inhibition at 300 µM (peak Nav1.5; HEK293, read-out: peak Nav1.5 current amplitude, percent reduction, 300 μM, individual cell (raw data)): 3.7%
- inhibition at 1000 µM (peak Nav1.5; HEK293, read-out: peak Nav1.5 current amplitude, percent reduction, 1000 μM, individual cell (raw data)): 11.2%
- Block Duration (min) Motor (sciatic nerve [2]; dose conc 10 mM): 100 ± 60 min

Compound: CCC[N@+]1(CC(=O)OC)CCCC[C@H]1C(=O)Nc1c(C)cccc1C.[Br-] (racemic) [4Sa + 4Sb, 2-((2,6-Dimethylphenyl)carbamoyl)-1-(2-methoxy-2-oxoethyl)-1-propylpiperidin-1-ium bromide]
- cytotoxicity compared with ropivacaine and bupivacaine (in words) (PC12 cells): significantly less cytotoxic than ropivacaine and bupivacaine
- Sensory:Motor Block Ratio (sciatic nerve [1]; dose conc 5 mM): ∞
- Block Duration (min) Sensory (sciatic nerve [1]; dose conc 5 mM): 34 ± 13 min
- Block Duration (min) Sensory (sciatic nerve [1]; dose conc 7.5 mM): 108 ± 27 min
- Block Duration (min) Sensory (sciatic nerve [1]; dose conc 10 mM): 220 ± 40 min
- Block Duration (min) Sensory (sciatic nerve [1]; dose conc 15 mM): 254 ± 48 min
- cytotoxicity compared with ropivacaine and bupivacaine (in words) (C2C12 Mouse myoblasts): significantly less cytotoxic than ropivacaine and bupivacaine
- Block Duration (min) Motor (sciatic nerve [2]; dose conc 5 mM): 0 min
- Block Duration (min) Motor (sciatic nerve [2]; dose conc 7.5 mM): 10 ± 10 min
- Block Duration (min) Motor (sciatic nerve [2]; dose conc 10 mM): 78 ± 24 min
- Block Duration (min) Motor (sciatic nerve [2]; dose conc 15 mM): 69 ± 20 min

Compound: CCC[N@@+]1(CC(=O)NC)CCCC[C@H]1C(=O)Nc1c(C)cccc1C [Compound 26Sa, 2-((2,6-dimethylphenyl)carbamoyl)-1-(2-(methylamino)-2-oxoethyl)-1-propyl-1-piperidin-2-ylium bromide]
- cytotoxicity compared with ropivacaine and bupivacaine (in words) (PC12 cells): significantly less cytotoxic than ropivacaine and bupivacaine
- IC50 (PC12 cells): 1200 µM
- Block Duration (min) Sensory (sciatic nerve [1]; dose conc 10 mM): 180 min
- cytotoxicity compared with ropivacaine and bupivacaine (in words) (C2C12 Mouse myoblasts): significantly less cytotoxic than ropivacaine and bupivacaine
- IC50 (C2C12 Mouse myoblasts): 1000 µM
- Block Duration (min) Motor (sciatic nerve [2]; dose conc 10 mM): 140 min

Compound: COC(=O)C[N@@+]1(C)CCCC[C@H]1C(=O)Nc1c(C)cccc1C (racemic) [Compound 3a, 2-((2,6-Dimethylphenyl)carbamoyl)-1-(2-methoxy-2-oxoethyl)-1-methylpiperidin-1-ium bromide]
- Block Duration (min) Sensory (sciatic nerve [1]; dose conc 10 mM): 0 min
- Block Duration (min) Motor (sciatic nerve [2]; dose conc 10 mM): 0 min

Compound: CCCN1CCCC[C@H]1C(=O)Nc1c(C)cccc1C (single isomer, unassigned) [(S)-Ropivacaine, reference compound]
- Block Duration (min) Sensory (sciatic nerve [1]; dose conc 10 mM): 150 ± 35 min
- Block Duration (min) Sensory (sciatic nerve [1]; dose conc 15 mM): 215 ± 31 min
- Block Duration (min) Motor (sciatic nerve [2]; dose conc 10 mM): 150 ± 38 min
- Block Duration (min) Motor (sciatic nerve [2]; dose conc 15 mM): 210 ± 28 min

Compound: Br.CC[N+](CC)(CC(=O)Nc1c(C)cccc1C)CC(=O)OC [Compound 1, 2-((2,6-Dimethylphenyl)amino)-N,N-diethyl-N-(2-methoxy-2-oxoethyl)-2-oxoethan-1-aminium bromide]
- cytotoxicity compared with ropivacaine and bupivacaine (in words) (PC12 cells): significantly less cytotoxic than ropivacaine and bupivacaine
- cytotoxicity compared with ropivacaine and bupivacaine (in words) (C2C12 Mouse myoblasts): significantly less cytotoxic than ropivacaine and bupivacaine

Compound: CCCC[N+]1(COC(C)=O)CCCCC1C(=O)Nc1c(C)cccc1C.[Br-] (stereo not shown) [Compound 9, 1-(Acetoxymethyl)-1-butyl-2-((2,6-dimethylphenyl)carbamoyl)piperidin-1-ium bromide]
- Block Duration (min) Sensory (sciatic nerve [1]; dose conc 5 mM): 65 ± 23 min
- Block Duration (min) Sensory (sciatic nerve [1]; dose conc 10 mM): 120 ± 53 min
- Block Duration (min) Sensory (sciatic nerve [1]; dose conc 15 mM): 125 ± 51 min
- Block Duration (min) Motor (sciatic nerve [2]; dose conc 5 mM): 25 ± 19 min
- Block Duration (min) Motor (sciatic nerve [2]; dose conc 10 mM): 75 ± 39 min
- Block Duration (min) Motor (sciatic nerve [2]; dose conc 15 mM): 85 ± 36 min

Compound: COC(=O)C[N@@+]1(C)CCCC[C@@H]1C(=O)Nc1c(C)cccc1C (racemic) [Compound 3b, 2-((2,6-Dimethylphenyl)carbamoyl)-1-(2-methoxy-2-oxoethyl)-1-methylpiperidin-1-ium bromide]
- Block Duration (min) Sensory (sciatic nerve [1]; dose conc 10 mM): 450 ± 60 min
- Block Duration (min) Motor (sciatic nerve [2]; dose conc 10 mM): 300 ± 60 min

Compound: CCCC[N@+]1(CC(=O)OC)CCCC[C@H]1C(=O)Nc1c(C)cccc1C (racemic) [2a + 2b, 1-Butyl-2-((2,6-dimethylphenyl)carbamoyl)-1-(2-methoxy-2-oxoethyl)piperidin-1-ium bromide]
- cytotoxicity compared with ropivacaine and bupivacaine (in words) (PC12 cells): significantly less cytotoxic than ropivacaine and bupivacaine
- Sensory:Motor Block Ratio (sciatic nerve [1]; dose conc 5 mM): ∞
- Block Duration (min) Sensory (sciatic nerve [1]; dose conc 5 mM): 30 ± 12 min
- Block Duration (min) Sensory (sciatic nerve [1]; dose conc 7.5 mM): 120 ± 34 min
- Block Duration (min) Sensory (sciatic nerve [1]; dose conc 10 mM): 150 ± 51 min
- cytotoxicity compared with ropivacaine and bupivacaine (in words) (C2C12 Mouse myoblasts): significantly less cytotoxic than ropivacaine and bupivacaine
- Block Duration (min) Motor (sciatic nerve [2]; dose conc 5 mM): 0 min
- Block Duration (min) Motor (sciatic nerve [2]; dose conc 7.5 mM): 30 ± 15 min
- Block Duration (min) Motor (sciatic nerve [2]; dose conc 10 mM): 50 ± 23 min

Compound: CCC[N+]1(COC(C)=O)CCCC[C@H]1C(=O)Nc1c(C)cccc1C.[Br-] (stereo partly shown) [Compound 10S, 1-(Acetoxymethyl)-2-((2,6-dimethylphenyl)carbamoyl)-1-propylpiperidin-1-ium bromide]
- cytotoxicity compared with ropivacaine and bupivacaine (in words) (PC12 cells): significantly less cytotoxic than ropivacaine and bupivacaine
- Block Duration (min) Sensory (sciatic nerve [1]; dose conc 5 mM): 55 ± 23 min
- Block Duration (min) Sensory (sciatic nerve [1]; dose conc 10 mM): 105 ± 53 min
- cytotoxicity compared with ropivacaine and bupivacaine (in words) (C2C12 Mouse myoblasts): significantly less cytotoxic than ropivacaine and bupivacaine
- Block Duration (min) Motor (sciatic nerve [2]; dose conc 5 mM): 15 ± 15 min
- Block Duration (min) Motor (sciatic nerve [2]; dose conc 10 mM): 65 ± 34 min

Compound: CCCC(=O)OC[N+]1(CCC)CCCC[C@H]1C(=O)Nc1c(C)cccc1C.[Cl-] (stereo in doubt) [Compound 11S, 1-((Butyryloxy)methyl)-2-((2,6-dimethylphenyl)carbamoyl)-1-propylpiperidin-1-ium chloride]
- cytotoxicity compared with ropivacaine and bupivacaine (in words) (PC12 cells): significantly less cytotoxic than ropivacaine and bupivacaine
- Block Duration (min) Sensory (sciatic nerve [1]; dose conc 10 mM): 135 ± 56 min
- cytotoxicity compared with ropivacaine and bupivacaine (in words) (C2C12 Mouse myoblasts): significantly less cytotoxic than ropivacaine and bupivacaine
- Block Duration (min) Motor (sciatic nerve [2]; dose conc 10 mM): 90 ± 44 min
